Values of other authors as cited in patent publication US12410178B2, “Small cationic ortho-5,15-di-heteroaryl-porphyrin derivatives and their applications in photoinactivation of microorganisms” (UNIVERSIDADE DE COIMBRA, priority 2019, dated 2025).

Columns and labels:
human HeLa cells = conditions: phototoxicity in vitro; read-out: concentration at which 50% of human HeLa cells are killed; cited from earlier work
flies = conditions: in vivo; cited from earlier work

Row | Structure (SMILES) | IC50 (human HeLa cells) | phototoxicity towards flies (flies)
1 | CCn1cc[n+](CC)c1C1=c2ccc3[n]2[Zn@]24[n]5c(ccc5C(c5ccccc5)=C5C=CC(=[N+]52)C=3)C=C2C=CC1=[N+]24 [Formula (III), zinc(II) phenylporphinate] | 1.2 µM | 
2 | C[n+]1ccc(-c2c3nc(c(-c4cc[n+](C)cc4)c4ccc([nH]4)c(-c4ccccc4)c4nc(c(-c5ccccc5)c5ccc2[nH]5)C=C4)C=C3)cc1 [Formula (IV), meso-(di-cis[4-N-methyl-pyridyl]cis-diphenyl-porphyrin)] |  | phototoxic towards flies
